Here are results for four compounds from PubChem BioAssay AID1259407 (Chemical Carcinogenesis Research Information System (CCRIS), 2018).

Calls of active or inactive are those of the source. How the calls were made is not given here.

The data set concerns CCRIS mutagenicity, Ames/micronucleus/aberration tests. Nature of the data set: CCRIS mutagenicity studies.
Where [1] appears, read: Test System: AMES SALMONELLA TYPHIMURIUM, Strain/Indicator: TA98, Metabolic Activation: NONE, Method: PREINCUBATION
Where [2] appears, read: Test System: AMES SALMONELLA TYPHIMURIUM, Strain/Indicator: TA100, Metabolic Activation: NONE, Method: PREINCUBATION
Setting [3] is: Test System: AMES SALMONELLA TYPHIMURIUM, Strain/Indicator: TA100, Metabolic Activation: NONE, Method: STANDARD PLATE.

Turning to `c1cnccn1`, the mutagenic call by setting is: (Test System: AMES SALMONELLA TYPHIMURIUM, Strain/Indicator: TA98, Metabolic Activation: HAMSTER, LIVER, S-9, AROCLOR 1254, Method: STANDARD PLATE) “inactive; negative”; under setting [1], “inactive; negative”; (Test System: AMES SALMONELLA TYPHIMURIUM, Strain/Indicator: TA98, Metabolic Activation: NONE, Method: STANDARD PLATE) “inactive; negative”; (Test System: AMES SALMONELLA TYPHIMURIUM, Strain/Indicator: TA98, Metabolic Activation: RAT, LIVER, S-9, AROCLOR 1254, Method: PREINCUBATION) “inactive; negative”; (Test System: AMES SALMONELLA TYPHIMURIUM, Strain/Indicator: TA98, Metabolic Activation: RAT, LIVER, S-9, AROCLOR 1254, Method: STANDARD PLATE) “inactive; negative”; (Test System: AMES SALMONELLA TYPHIMURIUM, Strain/Indicator: TA98, Metabolic Activation: RAT, LIVER, S-9, PCB, Method: PREINCUBATION) “inactive; negative”. Further, the mutagenic call by setting is: (Test System: AMES SALMONELLA TYPHIMURIUM, Strain/Indicator: TA100, Metabolic Activation: HAMSTER, LIVER, S-9, AROCLOR 1254, Method: STANDARD PLATE) “inactive; negative”; under setting [2], “inactive; negative”; under setting [3], “inactive; negative”; (Test System: AMES SALMONELLA TYPHIMURIUM, Strain/Indicator: TA100, Metabolic Activation: RAT, LIVER, S-9, AROCLOR 1254, Method: PREINCUBATION) “inactive; negative”; (Test System: AMES SALMONELLA TYPHIMURIUM, Strain/Indicator: TA100, Metabolic Activation: RAT, LIVER, S-9, AROCLOR 1254, Method: STANDARD PLATE) “inactive; negative”; (Test System: AMES SALMONELLA TYPHIMURIUM, Strain/Indicator: TA100, Metabolic Activation: RAT, LIVER, S-9, PCB, Method: PREINCUBATION) “inactive; negative”. Also, the mutagenic call runs as follows: (Test System: AMES SALMONELLA TYPHIMURIUM, Strain/Indicator: TA102, Metabolic Activation: NONE, Method: PREINCUBATION) “inactive; negative”; (Test System: AMES SALMONELLA TYPHIMURIUM, Strain/Indicator: TA102, Metabolic Activation: RAT, LIVER, S-9, AROCLOR 1254, Method: PREINCUBATION) “inactive; negative”; (Test System: AMES SALMONELLA TYPHIMURIUM, Strain/Indicator: TA1535, Metabolic Activation: HAMSTER, LIVER, S-9, AROCLOR 1254, Method: STANDARD PLATE) “inactive; negative”; (Test System: AMES SALMONELLA TYPHIMURIUM, Strain/Indicator: TA1535, Metabolic Activation: NONE, Method: STANDARD PLATE) “inactive; negative”; (Test System: AMES SALMONELLA TYPHIMURIUM, Strain/Indicator: TA1535, Metabolic Activation: RAT, LIVER, S-9, AROCLOR 1254, Method: STANDARD PLATE) “inactive; negative”; (Test System: AMES SALMONELLA TYPHIMURIUM, Strain/Indicator: TA1537, Metabolic Activation: HAMSTER, LIVER, S-9, AROCLOR 1254, Method: STANDARD PLATE) “inactive; negative”. Moreover, the mutagenic call is, setting by setting: (Test System: AMES SALMONELLA TYPHIMURIUM, Strain/Indicator: TA1537, Metabolic Activation: NONE, Method: STANDARD PLATE) “inactive; negative”; (Test System: AMES SALMONELLA TYPHIMURIUM, Strain/Indicator: TA1537, Metabolic Activation: RAT, LIVER, S-9, AROCLOR 1254, Method: STANDARD PLATE) “inactive; negative”; (Test System: AMES SALMONELLA TYPHIMURIUM, Strain/Indicator: TA1538, Metabolic Activation: HAMSTER, LIVER, S-9, AROCLOR 1254, Method: STANDARD PLATE) “inactive; negative”; (Test System: AMES SALMONELLA TYPHIMURIUM, Strain/Indicator: TA1538, Metabolic Activation: NONE, Method: STANDARD PLATE) “inactive; negative”; (Test System: AMES SALMONELLA TYPHIMURIUM, Strain/Indicator: TA1538, Metabolic Activation: RAT, LIVER, S-9, AROCLOR 1254, Method: STANDARD PLATE) “inactive; negative”; (Test System: MOUSE LYMPHOMA, Strain/Indicator: L5178Y (TK+/TK-), Metabolic Activation: NONE, Method: SUSPENSION/PLATE) “inactive; negative. reevaluation of results: negative”. Further, under “Test System: MOUSE LYMPHOMA, Strain/Indicator: L5178Y (TK+/TK-), Metabolic Activation: RAT, LIVER, S-9, AROCLOR 1254, Method: SUSPENSION/PLATE”, the mutagenic call is “inactive; negative. reevaluation of results: negative”.

Regarding `NCCCCCCN`, the mutagenic call runs as follows: (Test System: AMES SALMONELLA TYPHIMURIUM, Strain/Indicator: TA98, Metabolic Activation: HAMSTER, LIVER, S-9, AROCLOR 1254 (10%), Method: PREINCUBATION) “inactive; negative”; under setting [1], “inactive; negative”; (Test System: AMES SALMONELLA TYPHIMURIUM, Strain/Indicator: TA98, Metabolic Activation: RAT, LIVER, S-9, AROCLOR 1254 (10%), Method: PREINCUBATION) “inactive; negative”; (Test System: AMES SALMONELLA TYPHIMURIUM, Strain/Indicator: TA100, Metabolic Activation: HAMSTER, LIVER, S-9, AROCLOR 1254 (10%), Method: PREINCUBATION) “inactive; negative”; under setting [2], “inactive; negative”; (Test System: AMES SALMONELLA TYPHIMURIUM, Strain/Indicator: TA100, Metabolic Activation: RAT, LIVER, S-9, AROCLOR 1254 (10%), Method: PREINCUBATION) “inactive; negative”. Further, the mutagenic call by setting is: (Test System: AMES SALMONELLA TYPHIMURIUM, Strain/Indicator: TA1535, Metabolic Activation: HAMSTER, LIVER, S-9, AROCLOR 1254 (10%), Method: PREINCUBATION) “inactive; negative”; (Test System: AMES SALMONELLA TYPHIMURIUM, Strain/Indicator: TA1535, Metabolic Activation: NONE, Method: PREINCUBATION) “inactive; negative”; (Test System: AMES SALMONELLA TYPHIMURIUM, Strain/Indicator: TA1535, Metabolic Activation: RAT, LIVER, S-9, AROCLOR 1254 (10%), Method: PREINCUBATION) “inactive; negative”; (Test System: AMES SALMONELLA TYPHIMURIUM, Strain/Indicator: TA1537, Metabolic Activation: HAMSTER, LIVER, S-9, AROCLOR 1254 (10%), Method: PREINCUBATION) “inactive; negative”; (Test System: AMES SALMONELLA TYPHIMURIUM, Strain/Indicator: TA1537, Metabolic Activation: NONE, Method: PREINCUBATION) “inactive; negative”; (Test System: AMES SALMONELLA TYPHIMURIUM, Strain/Indicator: TA1537, Metabolic Activation: RAT, LIVER, S-9, AROCLOR 1254 (10%), Method: PREINCUBATION) “inactive; negative”.

As to `Cc1cccc(C(=O)ON(OCc2ccccc2)C(=O)c2ccccc2)c1`, the mutagenic call was “active; positive” under setting [3] and “active; positive” (Test System: AMES SALMONELLA TYPHIMURIUM, Strain/Indicator: TA100, Metabolic Activation: RAT, S-9, AROCLOR, Method: STANDARD PLATE).

`Cc1c(O)cc([N+](=O)[O-])cc1[N+](=O)[O-]`: the mutagenic call (Test System: AMES SALMONELLA TYPHIMURIUM, Strain/Indicator: TA98, Metabolic Activation: RAT, LIVER, S-9, KANECHLOR 500, Method: PREINCUBATION) is “inactive; negative”; the mutagenic call under setting [2] was “inactive; negative”; the mutagenic call (Test System: AMES SALMONELLA TYPHIMURIUM, Strain/Indicator: TA100, Metabolic Activation: RAT, LIVER, S-9, KANECHLOR 500, Method: PREINCUBATION) is “inactive; negative”.
